Experimental data from patent US9115061B2, “Naphthalene-based inhibitors of anti-apoptotic proteins” (BURNHAM INSTITUTE FOR MEDICAL RESEARCH, priority 2007, dated 2015).
Like-named read-outs stand apart in the source and are kept apart here. Blank lines part the entries; values can stand above or below the compound they belong to.

What was measured:
[1] = molecular target: BCL-XL (Homo sapiens (Human), UniProt Q07817); test: 1D 1H-NMR binding assay; settings: 4-point-rating scale; compounds 200 μM, BCL-XL 25 μM; note: key: +++: Very Active; ++: Active; +: Mild; −: Weak
Sequence of BCL-XL (Q07817 whole entry): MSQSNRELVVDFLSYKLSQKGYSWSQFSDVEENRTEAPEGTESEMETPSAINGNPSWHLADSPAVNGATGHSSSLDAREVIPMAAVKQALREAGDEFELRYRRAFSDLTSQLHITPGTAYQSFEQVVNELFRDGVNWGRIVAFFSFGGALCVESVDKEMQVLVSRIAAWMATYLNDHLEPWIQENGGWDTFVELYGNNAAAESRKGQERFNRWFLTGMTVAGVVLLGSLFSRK
Method: By observing the aliphatic region of the spectra, binding could be readily detected due to chemical shift changes in active site methyl groups of Ile, Leu, Thr, Val or Ala (region between −0.8 and 0.3 ppm). All experiments were performed with a 600 MHz spectrometer Bruker Avance 600 equipped with four rf channels and z-axis pulse-field gradients.

[2] = PAMPA (parallel artificial membrane permeation assay); settings: PAMPA, pH 7.2, 8 h
Method: PAMPA is parallel artificial membrane permeation assay. A 96-well microtiter plate (Millipore, # MSSACCEPTOR) was completely filled with aqueous buffer solution (pH 7.2) and covered with a microtiter filterplate (Millipore, # MAPBMN310). The hydrophobic filter material was impregnated with a 10% solution of hexadecane in hexane and the organic solvent was allowed to completely evaporate. Permeation studies were started by the transfer of 200 μL of a 100 μM test compound solution on top of the filterplate. In general phosphate buffer at pH 7.2 buffer was used. The maximum DMSO content of the stock solutions was <5%. In parallel, an equilibrium solution lacking a membrane was prepared using the exact concentrations and specifications but lacking the membrane. The concentrations of the acceptor and equilibrium solutions were determined using the Shimadzu LCMS-2010EV and AUC methods. The permeation of a compound through the membrane layer is described by the percentage permeation (% flux). The flux values were calculated considering the concentration of the acceptor compartment after 8 h and that of a reference well with the same concentration containing no membrane barrier.

[3] = Plasma stability; type: in vitro ADME, rat; settings: rat plasma, 1 h, 37.5° C.
Method: A 20 μL aliquot of a 10 mM solution in DMSO of the test compound was added to […] of heparinized rat plasma (Lampire, P1-150N) to obtain a 100 μM final solution. The mixture was incubated for 1 h at 37.5° C. Aliquots of 100 μL were taken (0, 30 min, 1 h) and diluted with 200 μL of MeOH containing internal standard.

[4] = Liver microsomal stability; settings: for Microsomal Stability (T = 1 hr): rat liver microsomes, 4 μM, 60 min; for microsomal stability compared to apogossypol: rat microsomal preparations
Method: Pooled rat liver microsomes (BD Biosciences, #452701) were preincubated with test compounds at 37.5° C. for 5 min in the absence of NADPH. The reaction was initiated by addition of NADPH and then incubated under the same conditions. […] One aliquot (100 μL) of the incubation mixture was withdrawn at 0, 15, 30, and 60 min and combined immediately with 200 μL of ACN/MeOH containing an internal standard. After mixing, the sample was centrifuged at approximately 13,000 rpm for 12 min. The supernatant was transferred into an autosampler vial and the amount of test compound was quantified using the Shimadzu LCMS 2010EV mass spectrometer. The change of the AUC (area under the curve) of the parent compound as function of time was used as a measure of microsomal stability.

[5] = test system: H460 cell line; test: Cell viability, ATP-LITE assay; type: cell-based, human
Method: (§1) The activity of the compounds against human cancer cell lines (PC3ML, H460, H1299, RS11846) were assessed by using the ATP-LITE assay (PerkinElmer). All cells were seeded in either F12 or RPMI1640 medium with 5 mM L-glutamine supplemented with 5% fetal bovine serum (Mediatech Inc.), penicillin and streptomycin (Omega). For maintenance, cells were cultured in 5% FBS. Cells plated into 96 well plates at varying initial densities depending on doubling time. H460 and H1299 plated at 2000 cells/well, A549 and PC3 at 3000 cells/well, and RS118456S at 10,000 cells/well. Compounds were diluted to final concentrations with 0.1% DMSO. Prior to dispensing compounds onto cells, fresh 5% media was placed into wells. Administration of compounds occurred 24 hours after seeding into the fresh media. Cell viability was evaluated using ATP-LITE reagent (PerkinElmer) after 72 hours of treatment. Data were normalized to the DMSO control-treated cells using Prism version 5.01 (Graphpad Software).

[6] = test system: RS11846 cell line; test: Apoptosis, Annexin V and propidium iodide assay; type: cell-based, human
Method: The apoptotic activity of the compounds against RS11846 cells was assessed by staining with Annexin V- and propidium iodide (PI). Lymphoma cell line, RS11846, was cultured in RPMI 1640 medium (Mediatech Inc., Herndon, Va. 20171) containing 10% fetal bovine serum (Mediatech Inc., Herndon, Va. 20171) and Penicillin/Streptomycin (Mediatech Inc., Herndon, Va. 20171). […] The percentage of viable cells was determined by FITC-Annexin V- and propidium iodide (PI)-labeling, using an Apoptosis Detection kit (BioVision Inc.), and analyzing stained cells by flow cytometry (FACSort; Bectin-Dickinson, Inc.; Mountain View, Calif.). Cells that were annexin-V-negative and PI-negative were considered viable.

[7] = molecular target: GST-Mcl-1 (Homo sapiens (Human), UniProt Q07820); test: Fluorescence polarization assay (FITC-Bim BH3 peptide); type: binding; settings: read-out: EC50 FPA Mcl-1
Sequence of GST-Mcl-1 (Q07820 whole entry): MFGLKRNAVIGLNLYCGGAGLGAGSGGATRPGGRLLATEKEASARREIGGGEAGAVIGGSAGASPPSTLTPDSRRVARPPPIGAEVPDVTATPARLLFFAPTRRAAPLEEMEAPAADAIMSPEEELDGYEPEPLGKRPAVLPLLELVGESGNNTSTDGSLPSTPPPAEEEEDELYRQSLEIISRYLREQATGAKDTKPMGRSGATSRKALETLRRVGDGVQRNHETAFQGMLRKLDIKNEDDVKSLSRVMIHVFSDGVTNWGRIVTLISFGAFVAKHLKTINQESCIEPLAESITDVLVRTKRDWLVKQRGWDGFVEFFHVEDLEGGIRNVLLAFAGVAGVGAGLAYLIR
Method: After 30 min incubation at room temperature, the polarization values in millipolarization units were measured at excitation/emission wavelengths of 480/535 nm with a multilabel plate reader (PerkinElmer). IC50 was determined by fitting the experimental data to a sigmoidal dose-response nonlinear regression model (SigmaPlot 10.0.1, Systat Software, Inc., San Jose, Calif., USA). Data reported are mean of three independent experiments ±standard error (SE). […] Fluorescence polarization was measured after 10 min.

[8] = molecular target: GST-BCL-2 (Homo sapiens (Human), UniProt P10415); test: as above; type: binding; settings: read-out: EC50 FPA BCL-2
Sequence of GST-BCL-2 (P10415 whole entry): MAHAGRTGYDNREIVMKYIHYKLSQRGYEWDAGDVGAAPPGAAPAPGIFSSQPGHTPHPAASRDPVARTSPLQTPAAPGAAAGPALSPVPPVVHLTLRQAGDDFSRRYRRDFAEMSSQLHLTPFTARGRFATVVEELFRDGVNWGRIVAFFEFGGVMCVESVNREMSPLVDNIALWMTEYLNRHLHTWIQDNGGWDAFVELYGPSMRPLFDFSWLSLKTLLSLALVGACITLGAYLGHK
Method: After 30 min incubation at room temperature, the polarization values in millipolarization units were measured at excitation/emission wavelengths of 480/535 nm with a multilabel plate reader (PerkinElmer). IC50 was determined by fitting the experimental data to a sigmoidal dose-response nonlinear regression model (SigmaPlot 10.0.1, Systat Software, Inc., San Jose, Calif., USA). Data reported are mean of three independent experiments ±standard error (SE). Performance of BCL-2 and Mcl-1 FPA are similar. […] Fluorescence polarization was measured after 10 min.

[9] = test system: PC3ML cells; test: Cell viability, ATP-LITE assay; type: cell-based, human; settings: 72 hours, ATP-LITE
Method: as §1

[10] = molecular target: GST-BCL-XL ΔTM protein (Homo sapiens (Human), UniProt Q07817); test: Competitive fluorescence polarization assay (FITC-Bak BH3 peptide); type: binding; settings: read-out: FPA IC50 (BCL-XL)
Sequence of GST-BCL-XL ΔTM protein (Q07817 1-209): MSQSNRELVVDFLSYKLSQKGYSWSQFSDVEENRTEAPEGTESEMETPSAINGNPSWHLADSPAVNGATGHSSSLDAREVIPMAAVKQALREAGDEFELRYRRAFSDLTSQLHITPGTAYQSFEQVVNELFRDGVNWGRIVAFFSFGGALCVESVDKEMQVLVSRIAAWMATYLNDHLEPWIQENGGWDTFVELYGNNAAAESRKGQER
Method: For competitive binding assays, 100 nM GST-BCL-XL ΔTM protein was preincubated with the tested compound at varying concentrations in 47.5 μL PBS (pH=7.4) in 96-well black plates at room temperature for 10 min, then 2.5 μL of 100 nM FITC-labeled Bak BH3 peptide was added to produce a final volume of 50 μL. The wild-type and mutant Bak BH3 peptides were included in each assay plate as positive and negative controls, respectively.
IC50 was determined by fitting the experimental data to a sigmoidal dose-response nonlinear regression model (SigmaPlot 10.0.1, Systat Software, Inc., San Jose, Calif., USA). Data reported are mean of three independent experiments ±standard error (SE). […] Fluorescence polarization was measured after 10 min.

- 1D 1H-NMR Binding Assay (BCL-XL) [1]: +
Compound: CCCCC(CC)CC(=O)c1c(O)c(O)cc2c(O)c(-c3c(C)cc4c(C(=O)CC(CC)CCCC)c(O)c(O)cc4c3O)c(C)cc12 (centres unmarked) [Compound V, 1,1′-(1,1′,6,6′,7,7′-hexahydroxy-3,3′-dimethyl-2,2′-binaphthyl-5,5′-diyl)bis(3-ethylheptan-1-one)]

- 1D 1H-NMR Binding Assay (BCL-XL) [1]: +
- Cell Permeability [2]: Low
- Plasma Stability (T = 1 hr) [3]: 79%
- Microsomal Stability (T = 1 hr) [4]: 27%
- microsomal stability compared to apogossypol [4]: degraded faster than apogossypol
Compound: Cc1cc2c(C(=O)C3CCCC3)c(O)c(O)cc2c(O)c1-c1c(C)cc2c(C(=O)C3CCCC3)c(O)c(O)cc2c1O [Compound VI, (1,1′,6,6′,7,7′-hexahydroxy-3,3′-dimethyl-2,2′-binaphthyl-5,5′-diyl)bis(cyclopentylmethanone)]

- 1D 1H-NMR Binding Assay (BCL-XL) [1]: +
- EC50 ([5]; 72 hours, ATP-LITE): 0.31 µM
Compound: Cc1cc2c(C(=O)c3ccccc3)c(O)c(O)cc2c(O)c1-c1c(C)cc2c(C(=O)c3ccccc3)c(O)c(O)cc2c1O [Compound VII, (1,1′,6,6′,7,7′-hexahydroxy-3,3′-dimethyl-2,2′-binaphthyl-5,5′-diyl)bis(phenylmethanone)]

- 1D 1H-NMR Binding Assay (BCL-XL) [1]: ++
Compound: Cc1cc2c(C(=O)CC3CCCCC3)c(O)c(O)cc2c(O)c1-c1c(C)cc2c(C(=O)CC3CCCCC3)c(O)c(O)cc2c1O [Compound XV, 1,1′-(1,1′,6,6′,7,7′-hexahydroxy-3,3′-dimethyl-2,2′-binaphthyl-5,5′-diyl)bis(2-cyclohexylethanone)]

- 1D 1H-NMR Binding Assay (BCL-XL) [1]: +
Compound: Cc1cc2c(C(=O)CCc3ccc(F)cc3)c(O)c(O)cc2c(O)c1-c1c(C)cc2c(C(=O)CCc3ccc(F)cc3)c(O)c(O)cc2c1O [Compound XVI, 1,1′-(1,1′,6,6′,7,7′-hexahydroxy-3,3′-dimethyl-2,2′-binaphthyl-5,5′-diyl)bis(3-(4-fluorophenyl)propan-1-one)]

The next lines start with the compound.

Compound: Cc1cc2cc(O)c(O)cc2c(O)c1-c1c(C)cc2cc(O)c(O)cc2c1O [Compound II, 3,3′-dimethyl-2,2′-binaphthyl-1,1′,6,6′,7,7′-hexaol]
- 1D 1H-NMR Binding Assay (BCL-XL) [1]: +

Compound: Cc1cc2c(C(=O)C(C)C)c(O)c(O)cc2c(O)c1-c1c(C)cc2c(C(=O)C(C)C)c(O)c(O)cc2c1O [Compound III, 1,1′-(1,1′6,6′,7,7′-hexahydroxy-3,3′-dimethyl-2,2′-binaphthyl-5,5′-diyl)bis(2-methylpropan-1-one)]
- 1D 1H-NMR Binding Assay (BCL-XL) [1]: ++

Compound: Cc1cc2c(C(=O)c3ccc(-c4ccccc4)cc3)c(O)c(O)cc2c(O)c1-c1c(C)cc2c(C(=O)c3ccc(-c4ccccc4)cc3)c(O)c(O)cc2c1O [Compound IX, (1,1′,6,6′,7,7′-hexahydroxy-3,3′-dimethyl-2,2′-binaphthyl-5,51-diyl)bis(biphenyl-4-ylmethanone)]
- 1D 1H-NMR Binding Assay (BCL-XL) [1]: −

Compound: Cc1cc2c(C(=O)c3ccc(C(C)(C)C)cc3)c(O)c(O)cc2c(O)c1-c1c(C)cc2c(C(=O)c3ccc(C(C)(C)C)cc3)c(O)c(O)cc2c1O [Compound X, (1,1′,6,6′,7,7′-hexahydroxy-3,3′-dimethyl-2,2′-binaphthyl-5,5′-diyl)bis((4-tert-butylphenyl)methanone)]
- 1D 1H-NMR Binding Assay (BCL-XL) [1]: −

Compound: Cc1cc2c(C(=O)c3ccc(C(F)(F)F)cc3)c(O)c(O)cc2c(O)c1-c1c(C)cc2c(C(=O)c3ccc(C(F)(F)F)cc3)c(O)c(O)cc2c1O [Compound XI, (1,1′,6,6′,7,7′-hexahydroxy-3,3′-dimethyl-2,2′-binaphthyl-5,5′-diyl)bis((4-(trifluoromethyl)phenyl)methanone)]
- 1D 1H-NMR Binding Assay (BCL-XL) [1]: +
- EC50 ([6]; 1-2 days; read-out: RS11846 EC50 (Annexin V- and propidium iodide assay)): 3.8 µM

Compound: Cc1ccc(CC(=O)c2c(O)c(O)cc3c(O)c(-c4c(C)cc5c(C(=O)Cc6ccc(C)cc6)c(O)c(O)cc5c4O)c(C)cc23)cc1 [Compound XII, 1,1′-(1,1′,6,6′,7,7′-hexahydroxy-3,3′-dimethyl-2,2′-binaphthyl-5,5′-diyl)bis(2-p-tolylethanone)]
- Cell Permeability [2]: Low and Medium
- EC50 [7]: 1.1 µM
- EC50 ([6]; read-out: RS11846 EC50 (Annexin V- and propidium iodide assay); 1-2 days): 3 µM
- Plasma Stability (T = 1 hr) [3]: 72%
- EC50 [8]: 0.78 µM
- EC50 [9]: 2.5 µM
- times more potent than apogossypol, H460 EC50 [5]: 4-5 times

Compound: Cc1cc2c(C(=O)Cc3cccc(Br)c3)c(O)c(O)cc2c(O)c1-c1c(C)cc2c(C(=O)Cc3cccc(Br)c3)c(O)c(O)cc2c1O [Compound XIII, 1,1′-(1,1′,6,6′,7,7′-hexahydroxy-3,3′-dimethyl-2,2′-binaphthyl-5,5′-diyl)bis(2-(3-bromophenyl)ethanone)]
- 1D 1H-NMR Binding Assay (BCL-XL) [1]: ++

Compound: Cc1cc2c(C(=O)c3nc4ccccc4s3)c(O)c(O)cc2c(O)c1-c1c(C)cc2c(C(=O)c3nc4ccccc4s3)c(O)c(O)cc2c1O [Compound XVII, (1,1′,6,6′,7,7′-hexahydroxy-3,3′-dimethyl-2,2′-binaphthyl-5,5′-diyl)bis(benzo[d]thiazol-2-ylmethanone)]
- 1D 1H-NMR Binding Assay (BCL-XL) [1]: ++
- Cell Permeability [2]: Medium
- IC50 [10]: 0.39 µM
- Plasma Stability (T = 1 hr) [3]: 90%
- Microsomal Stability (T = 1 hr) [4]: 68%

Compound: Cc1cc2c(C(=O)C(C)(C)C)c(O)c(O)cc2c(O)c1-c1c(C)cc2c(C(=O)C(C)(C)C)c(O)c(O)cc2c1O [Compound XVIII, 1,1′-(1,1′,6,6′,7,7′-hexahydroxy-3,3′-dimethyl-2,2′-binaphthyl-5,5′-diyl)bis(2,2-dimethylpropan-1-one)]
- 1D 1H-NMR Binding Assay (BCL-XL) [1]: ++
- Cell Permeability [2]: Medium
- Plasma Stability (T = 1 hr) [3]: 90%
- Microsomal Stability (T = 1 hr) [4]: 30%
- microsomal stability compared to apogossypol [4]: degraded faster than apogossypol

Compound: CCCCC(=O)c1c(O)c(O)cc2c(O)c(-c3c(C)cc4c(C(=O)CCCC)c(O)c(O)cc4c3O)c(C)cc12 [Compound XX, 1,1′-(1,1′,6,6′,7,7′-hexahydroxy-3,3′-dimethyl-2,2′-binaphthyl-5,5′-diyl)dipentan-1-one]
- 1D 1H-NMR Binding Assay (BCL-XL) [1]: +
